The text below walks through data of ChEMBL document CHEMBL5120855, “Potent 2,3-dihydrophthalazine-1,4-dione derivatives as dual inhibitors for mono-ADP-ribosyltransferases PARP10 and PARP15” (Eur J Med Chem, 2022).

Data set [1] concerns the target T1, Protein mono-ADP-ribosyltransferase PARP10 (Homo sapiens, UniProt Q53GL7).
T1 sequence (Q53GL7 whole entry): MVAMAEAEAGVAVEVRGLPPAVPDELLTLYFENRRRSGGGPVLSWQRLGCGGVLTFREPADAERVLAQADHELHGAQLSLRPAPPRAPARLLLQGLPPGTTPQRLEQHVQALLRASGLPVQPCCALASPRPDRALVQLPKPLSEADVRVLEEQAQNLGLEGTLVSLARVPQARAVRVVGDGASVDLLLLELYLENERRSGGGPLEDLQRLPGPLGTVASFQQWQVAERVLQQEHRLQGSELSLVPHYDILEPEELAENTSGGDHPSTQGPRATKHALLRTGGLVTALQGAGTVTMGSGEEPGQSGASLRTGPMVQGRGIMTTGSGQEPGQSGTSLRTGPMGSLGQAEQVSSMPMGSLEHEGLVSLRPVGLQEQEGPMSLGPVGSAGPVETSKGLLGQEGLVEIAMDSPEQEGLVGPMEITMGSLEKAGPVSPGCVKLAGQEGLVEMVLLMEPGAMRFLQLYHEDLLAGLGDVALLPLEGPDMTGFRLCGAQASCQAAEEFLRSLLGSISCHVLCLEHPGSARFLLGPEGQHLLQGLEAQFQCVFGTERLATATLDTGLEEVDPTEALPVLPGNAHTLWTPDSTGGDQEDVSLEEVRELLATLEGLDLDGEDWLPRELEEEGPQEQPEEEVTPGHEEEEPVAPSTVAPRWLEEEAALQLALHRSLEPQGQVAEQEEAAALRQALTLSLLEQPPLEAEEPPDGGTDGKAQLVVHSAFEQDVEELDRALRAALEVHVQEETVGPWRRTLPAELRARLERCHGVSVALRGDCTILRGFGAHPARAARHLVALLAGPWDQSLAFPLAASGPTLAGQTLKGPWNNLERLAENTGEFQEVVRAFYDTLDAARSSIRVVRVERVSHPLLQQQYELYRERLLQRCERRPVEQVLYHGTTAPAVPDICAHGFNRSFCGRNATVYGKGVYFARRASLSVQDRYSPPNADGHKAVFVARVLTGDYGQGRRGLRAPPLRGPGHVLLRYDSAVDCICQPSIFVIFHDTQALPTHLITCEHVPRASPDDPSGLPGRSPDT
Kind of data set: Inhibition of human PARP-10 using NAD+ as substrate incubated for 10 mins by fluorescence based analysis.

Data set [2] concerns the target T2, Protein mono-ADP-ribosyltransferase PARP15 (Homo sapiens, UniProt Q460N3).
T2 sequence (Q460N3 whole entry): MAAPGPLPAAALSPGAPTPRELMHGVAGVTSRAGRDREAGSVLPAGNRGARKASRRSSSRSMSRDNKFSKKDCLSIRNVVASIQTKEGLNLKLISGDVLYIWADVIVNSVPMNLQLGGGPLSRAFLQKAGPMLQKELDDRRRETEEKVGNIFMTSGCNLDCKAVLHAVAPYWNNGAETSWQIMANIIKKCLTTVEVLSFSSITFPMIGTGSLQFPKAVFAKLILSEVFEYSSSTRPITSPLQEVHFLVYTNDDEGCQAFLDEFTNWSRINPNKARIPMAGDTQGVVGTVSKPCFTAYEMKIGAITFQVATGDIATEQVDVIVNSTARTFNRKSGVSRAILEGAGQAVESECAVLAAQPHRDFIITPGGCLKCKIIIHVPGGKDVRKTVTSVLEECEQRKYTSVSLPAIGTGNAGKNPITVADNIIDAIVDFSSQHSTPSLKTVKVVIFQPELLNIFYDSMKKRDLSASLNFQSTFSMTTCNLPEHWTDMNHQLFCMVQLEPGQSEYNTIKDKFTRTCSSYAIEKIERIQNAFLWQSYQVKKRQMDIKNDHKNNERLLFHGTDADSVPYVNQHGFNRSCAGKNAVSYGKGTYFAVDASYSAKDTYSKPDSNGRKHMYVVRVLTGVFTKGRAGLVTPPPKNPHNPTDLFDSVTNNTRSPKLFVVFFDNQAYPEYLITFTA
The data set is described as follows: Inhibition of human N-terminal 6His-tagged PARP15 (460 to 656 residues) expressed in Escherichia coli Rosetta2 (DE3) cells using NAD+ as substrate incubated for 10 mins by fluorescence based analysis.

Data set [3] addresses Protein mono-ADP-ribosyltransferase PARP14 (Homo sapiens, UniProt Q460N5). The data set is described as follows: Inhibition of human PARP14 using NAD+ as substrate incubated for 10 mins by fluorescence based analysis.
The target of data set [4] is Poly [ADP-ribose] polymerase 2 (Homo sapiens, UniProt Q9UGN5). Kind of data set: Inhibition of human PARP2 using NAD+ as substrate incubated for 10 mins by fluorescence based analysis.
Sequence of Poly [ADP-ribose] polymerase 2 (Q9UGN5 whole entry): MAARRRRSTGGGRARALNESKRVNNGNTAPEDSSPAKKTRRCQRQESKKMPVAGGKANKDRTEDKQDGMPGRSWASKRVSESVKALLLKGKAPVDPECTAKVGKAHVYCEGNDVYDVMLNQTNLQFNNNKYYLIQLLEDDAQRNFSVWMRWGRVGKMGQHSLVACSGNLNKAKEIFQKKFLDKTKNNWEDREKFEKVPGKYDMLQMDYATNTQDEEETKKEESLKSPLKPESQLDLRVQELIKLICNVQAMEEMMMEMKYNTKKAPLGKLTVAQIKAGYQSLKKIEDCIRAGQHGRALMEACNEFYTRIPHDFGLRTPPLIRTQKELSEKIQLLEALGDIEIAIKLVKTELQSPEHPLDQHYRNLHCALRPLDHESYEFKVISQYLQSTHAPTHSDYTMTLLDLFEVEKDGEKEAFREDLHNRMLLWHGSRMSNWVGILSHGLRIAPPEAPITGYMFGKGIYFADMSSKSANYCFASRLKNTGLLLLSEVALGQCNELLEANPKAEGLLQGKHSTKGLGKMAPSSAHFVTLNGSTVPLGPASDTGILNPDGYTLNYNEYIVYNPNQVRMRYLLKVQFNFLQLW
The target in data set [5] is T3, Poly [ADP-ribose] polymerase tankyrase-2 (Homo sapiens, UniProt Q9H2K2).
T3 sequence (Q9H2K2 whole entry): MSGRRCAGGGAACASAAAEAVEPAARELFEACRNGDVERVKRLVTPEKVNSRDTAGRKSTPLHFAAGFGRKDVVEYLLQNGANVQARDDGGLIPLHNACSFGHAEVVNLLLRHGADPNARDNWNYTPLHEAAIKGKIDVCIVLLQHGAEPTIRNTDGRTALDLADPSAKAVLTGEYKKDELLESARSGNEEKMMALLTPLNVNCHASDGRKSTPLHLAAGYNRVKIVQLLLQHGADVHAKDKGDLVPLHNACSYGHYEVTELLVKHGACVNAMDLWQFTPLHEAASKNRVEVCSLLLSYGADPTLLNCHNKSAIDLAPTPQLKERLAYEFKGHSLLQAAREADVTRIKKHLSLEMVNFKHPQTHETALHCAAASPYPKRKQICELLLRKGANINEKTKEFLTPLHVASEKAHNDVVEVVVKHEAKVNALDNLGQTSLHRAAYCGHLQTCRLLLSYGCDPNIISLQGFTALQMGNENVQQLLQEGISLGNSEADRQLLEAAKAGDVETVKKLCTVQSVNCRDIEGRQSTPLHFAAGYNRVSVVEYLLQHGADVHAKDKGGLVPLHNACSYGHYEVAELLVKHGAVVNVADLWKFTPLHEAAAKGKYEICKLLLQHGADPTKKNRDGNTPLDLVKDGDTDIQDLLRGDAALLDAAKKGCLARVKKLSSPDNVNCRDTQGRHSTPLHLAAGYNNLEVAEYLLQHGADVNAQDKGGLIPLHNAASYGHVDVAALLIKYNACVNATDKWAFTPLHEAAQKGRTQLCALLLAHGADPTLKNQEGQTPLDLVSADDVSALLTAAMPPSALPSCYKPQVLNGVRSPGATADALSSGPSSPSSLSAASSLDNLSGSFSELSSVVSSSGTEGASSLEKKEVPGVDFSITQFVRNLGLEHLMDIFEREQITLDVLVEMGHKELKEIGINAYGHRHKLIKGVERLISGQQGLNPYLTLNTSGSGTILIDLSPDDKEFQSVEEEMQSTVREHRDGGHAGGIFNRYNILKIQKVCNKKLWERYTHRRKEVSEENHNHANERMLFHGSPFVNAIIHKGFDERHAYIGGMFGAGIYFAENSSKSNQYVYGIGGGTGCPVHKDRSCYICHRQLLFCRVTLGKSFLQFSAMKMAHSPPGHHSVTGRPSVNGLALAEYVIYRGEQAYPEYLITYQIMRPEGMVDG
The data set is described as follows: Inhibition of human N-terminal 6His-tagged TNKS2 (1030 to 1317 residues) expressed in Escherichia coli Rosetta2 (DE3) cells using NAD+ as substrate incubated for 10 mins by fluorescence based analysis.

The subject of data set [6] is HEK-293T. The data set is described as follows: Cytotoxicity against HEK293T cells assessed as reduction in cell viability at 10 uM measured after 24 hrs by WST-1 assay. The class given is toxicity, cell-based. The note with it: human. A general note: Tetrazolium dyes change colour on reduction, which living cells bring about.
The test system of data set [7] is HEK-293T. The data set is described as follows: Cytotoxicity against HEK293T cells assessed as reduction in cell viability at 100 uM measured after 24 hrs by WST-1 assay. The class given is toxicity, cell-based. The conditions noted are these: human.
Data set [8] addresses T2, Protein mono-ADP-ribosyltransferase PARP15. The data set is described as follows: Inhibition of PARP15 (unknown origin).
Data set [9] relates to HeLa. The data set is described as follows: Rescue of cell viability in human HeLa cells expressing wild type PARP10 at upto 10 uM incubated for 10 to 12 days by methylene blue dye based colony formation assay. The format is functional.

For orientation: IC50 means the concentration that gives 50% inhibition. A lower IC50 goes with greater potency in that assay. One may read the EC50 as the concentration that produces a half-maximal response.

Sequence of Protein mono-ADP-ribosyltransferase PARP14 (Q460N5 whole entry): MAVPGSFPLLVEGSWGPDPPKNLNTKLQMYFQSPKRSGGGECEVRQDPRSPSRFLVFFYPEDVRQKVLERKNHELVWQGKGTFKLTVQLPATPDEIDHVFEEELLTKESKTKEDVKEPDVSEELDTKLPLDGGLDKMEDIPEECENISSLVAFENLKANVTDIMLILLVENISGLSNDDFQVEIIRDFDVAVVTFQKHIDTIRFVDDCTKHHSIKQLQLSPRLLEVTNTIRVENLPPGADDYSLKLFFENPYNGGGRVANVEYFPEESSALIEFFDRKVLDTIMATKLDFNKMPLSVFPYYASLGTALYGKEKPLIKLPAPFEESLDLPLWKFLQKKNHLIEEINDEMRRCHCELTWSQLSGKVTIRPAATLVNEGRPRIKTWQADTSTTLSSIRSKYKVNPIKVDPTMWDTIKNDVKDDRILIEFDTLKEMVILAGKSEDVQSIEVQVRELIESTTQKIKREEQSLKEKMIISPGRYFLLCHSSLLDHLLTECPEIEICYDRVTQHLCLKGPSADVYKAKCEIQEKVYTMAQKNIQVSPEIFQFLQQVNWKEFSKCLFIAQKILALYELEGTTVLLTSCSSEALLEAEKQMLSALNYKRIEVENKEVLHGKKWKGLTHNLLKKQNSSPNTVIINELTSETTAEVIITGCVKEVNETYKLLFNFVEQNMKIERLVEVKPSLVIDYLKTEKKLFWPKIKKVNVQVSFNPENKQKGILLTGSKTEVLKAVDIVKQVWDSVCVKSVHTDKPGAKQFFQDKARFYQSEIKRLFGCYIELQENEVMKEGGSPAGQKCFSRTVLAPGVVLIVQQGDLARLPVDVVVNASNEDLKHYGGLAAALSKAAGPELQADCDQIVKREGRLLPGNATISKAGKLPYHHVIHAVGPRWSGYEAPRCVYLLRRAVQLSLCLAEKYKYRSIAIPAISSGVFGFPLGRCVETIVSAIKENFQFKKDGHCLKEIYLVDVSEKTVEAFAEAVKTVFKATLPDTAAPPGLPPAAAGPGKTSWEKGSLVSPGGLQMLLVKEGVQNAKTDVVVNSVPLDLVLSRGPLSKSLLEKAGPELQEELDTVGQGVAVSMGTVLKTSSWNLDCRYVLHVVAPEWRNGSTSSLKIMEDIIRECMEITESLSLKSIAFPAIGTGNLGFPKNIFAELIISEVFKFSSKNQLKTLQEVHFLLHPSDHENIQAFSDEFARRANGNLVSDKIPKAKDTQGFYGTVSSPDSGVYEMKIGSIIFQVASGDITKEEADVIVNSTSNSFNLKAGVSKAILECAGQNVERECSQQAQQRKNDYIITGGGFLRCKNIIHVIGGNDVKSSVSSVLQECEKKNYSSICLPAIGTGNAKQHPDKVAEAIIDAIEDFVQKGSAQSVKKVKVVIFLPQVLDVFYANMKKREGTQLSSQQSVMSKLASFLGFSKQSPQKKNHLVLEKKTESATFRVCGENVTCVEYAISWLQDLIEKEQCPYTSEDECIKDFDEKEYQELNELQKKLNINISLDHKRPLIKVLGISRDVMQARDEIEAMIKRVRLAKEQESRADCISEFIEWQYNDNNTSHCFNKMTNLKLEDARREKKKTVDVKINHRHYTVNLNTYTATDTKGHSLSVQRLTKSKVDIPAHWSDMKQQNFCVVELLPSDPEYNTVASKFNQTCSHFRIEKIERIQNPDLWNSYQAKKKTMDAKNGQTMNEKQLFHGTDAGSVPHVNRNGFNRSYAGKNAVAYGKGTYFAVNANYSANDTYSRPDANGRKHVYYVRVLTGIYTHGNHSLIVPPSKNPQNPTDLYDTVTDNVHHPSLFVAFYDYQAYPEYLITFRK

In the case of `COc1cc(OCc2ccccc2F)ccc1C(N)=O`, the IC50 in data set [1] was 1900 nM; in data set [2] it was 2600 nM; in data set [3], > 10000 nM; in data set [4], > 100000 nM; in data set [5] it was > 100000 nM. Further, the Activity result is given as “Non-Toxic” in data set [6] and “Toxic” in [7].
Regarding `Cc1cccc(C(=O)N[C@H](C(N)=O)C(=O)c2ccc3c(=O)[nH][nH]c(=O)c3c2)c1`, the IC50 in [8] amounted to 200 nM.
In the case of `O=c1[nH][nH]c(=O)c2cc(OCc3ccccc3F)ccc12`, the IC50 in data set [1] was found to be 150 nM; in data set [2], 370 nM. Besides, the Activity result in [6] is listed as “Non-Toxic”. In data set [9], this molecule yielded an EC50 of 1600 nM.
Taken in the same sequence, the figures for `O=c1[nH][nH]c(=O)c2cc(OCc3ccsc3)ccc12` were 160 nM, 400 nM, “Non-Toxic” and 950 nM.
